# Measured values reported in patent US4268510A, “1,3-Benzoxazine trichloromethyl derivatives, compositions and use” (Imperial Chemical Industries Limited, priority 1978, dated 1981).
# System: methane production from ruminal fluid
# Test: in vitro assay of inhibition of methane production from ruminal fluid
# Type: cell-based, steers (pooled rumen fluid)
# Details: at 1 μg./ml.; in vitro rumen fluid, 39° C., 15-16 hours
# Procedure: Rumen fluid is collected on a regular routine basis from two steers, which are fed on the same hay-plus-concentrate diet. Sampling time is standardised as far as possible, and the fluid from the two animals is pooled on a 50/50 basis. Large particulate matter is removed by filtering the pooled fluid through four layers of muslin cloth. The filtrate is then diluted in the ratio of one volume of filtrate to three volumes of an artificial rumen fluid (prepared as described by G. L. Bales et al., Journal of Dairy Science, 1976, volume 59, page 1850, but omitting acetic acid), and the pH of the mixture is adjusted to 6.9-7.0 with saturated aqueous sodium carbonate solution. Aliquots (50 ml.) of this mixture are dispensed into 100 ml. conical flasks containing dried ground hay (0.5 g.), and each flask is used to test a test compound at a particular concentration.
# The test compound is added to the conical flask as a solution in ethanol, the flask is flushed with carbon dioxide gas, stoppered with a suba-seal, and incubated at 39° C. for 15-16 hours. After one hour, a narrow bore needle is inserted through the suba-seal to relieve the gas pressure, and the needle is withdrawn 30 minutes before the incubation is ended. Fermentation is then stopped by placing the flask in ice, and after 15 minutes cooling, the gas over the liquid is analysed for methane by gas chromatography, and the concentration of the test compound required to produce a 50% reduction in methane production (ED50 in μg./ml.) is calculated.
# The test of methane inhibition described in Example 12 was repeated for various other compounds, to give the results shown below. The results are expressed as the percentage inhibition of methane production caused by 1 μg./ml. of a test compound, except for those compounds indicated by *, for which 3 μg./ml. was used.
row,SMILES,inhibition at 1 µg/mL [%]
1,"O=C(O)C1OC(C(Cl)(Cl)Cl)Nc2ccccc21 (stereo not shown) [drawing 9; R1=H; R3=H; R11=COOH, 1,2-dihydro-2-trichloromethyl-4H-benzo-[d]-[1,3]-oxazine-4-carboxylic acid]",14
2,"CC(=O)N1C(=O)c2ccccc2N(C(C)=O)C1C(Cl)(Cl)Cl (stereo not shown) [drawing 10; R3=H; R5=CH3 CO; R6=CH3 CO, 1,3-diacetyl-1,2-dihydro-2-trichloromethylquinazolin-4-one]",90
3,"COC(=O)c1ccc2c(c1)COC(C(Cl)(Cl)Cl)N2 (stereo not shown) [drawing 9; R1=H; R3=CH3 O . CO; R11=H, methyl 1,2-dihydro-2-trichloromethyl-4H-benzo[d]-[1,3]-oxazine-6-carboxylate]",100
4,"CCOC(=O)C1OC(C(Cl)(Cl)Cl)Nc2ccccc21 (stereo not shown) [drawing 9; R1=H; R3=H; R11=C2 H5 O . CO, ethyl 1,2-dihydro-2-trichloromethyl-4H-benzo[d]-[1,3]oxazine-4-carboxylate]",24
5,O=Cc1ccc2c(c1)C(=O)NC(C(Cl)(Cl)Cl)O2 (stereo not shown) [drawing 8; R1=H; R3=CHO; R5=H],47

# Same assay, conditions: at 3 μg./ml.; in vitro rumen fluid, 39° C., 15-16 hours; read-out: % Methane Inhibition (compounds indicated by *)
row,SMILES,inhibition at 3 µg/mL [%]
1,"N#Cc1ccc2c(c1)C(=O)NC(C(Cl)(Cl)Cl)O2 (stereo not shown) [drawing 8; R1=H; R3=CN; R5=H, 3,4-dihydro-4-oxo-2-trichloromethyl-2H-benzo[e]-[1,3]-oxazine-6-carbonitrile]",87

# Same assay, conditions: in vitro, diluted rumen fluid with dried ground hay, pH 6.9-7.0, 39° C., 15-16 hours; read-out: ED50, concentration of the test compound required to produce a 50% reduction in methane production
row,IC50 [µg/mL],SMILES
1,0.3,"N#Cc1ccc2c(c1)COC(C(Cl)(Cl)Cl)N2 (stereo not shown) [drawing 7; R3=CN, 1,2-dihydro-2-trichloromethyl-4H-benzo[d]-[1,3]-oxazine-6-carbonitrile]"
2,1,ClC(Cl)(Cl)C1Nc2ccc(I)cc2CO1 (stereo not shown) [drawing 7; R3=I]
3,3,"Cc1ccc2c(c1)COC(C(Cl)(Cl)Cl)N2 (stereo not shown) [drawing 7; R3=CH3, 1,2-dihydro-6-methyl-2-trichloromethyl-4H-benzo[d]-[1,3]oxazine]"
4,1,Cc1ccc2c(c1)C(=O)NC(C(Cl)(Cl)Cl)O2 (stereo not shown) [drawing 6; R3=CH3; R5=H]
5,0.3,"O=C(O)c1ccc2c(c1)C(=O)NC(C(Cl)(Cl)Cl)O2 (stereo not shown) [drawing 6; R3=HO . CO; R5=H, 3,4-dihydro-4-oxo-2-trichloromethyl-2H-benzo[e]-[1,3]-oxazine-6-carboxylicacid]"
6,10,"O=C1NC(C(Cl)(Cl)Cl)Oc2ccc(OCc3ccccc3)cc21 (stereo not shown) [drawing 6; R3=C6 H5 . CH2 O; R5=H, 6-benzyloxy-3,4-dihydro-2-trichloromethyl-2H-benzo[e]-[1,3]-oxazin-4-one]"
7,0.5,"O=[N+]([O-])c1ccc2c(c1)COC(C(Cl)(Cl)Cl)N2 (stereo not shown) [drawing 7; R3=NO2, 1,2-dihydro-6-nitro-2-trichloromethyl-4H-benzo[d]-[1,3]oxazine]"
8,0.5,O=C1NC(C(Cl)(Cl)Cl)Oc2ccc(Br)cc21 (stereo not shown) [drawing 6; R3=Br; R5=H]
9,0.5,"COc1ccc2c(c1)C(=O)NC(C(Cl)(Cl)Cl)O2 (stereo not shown) [drawing 6; R3=CH3 O; R5=H, 3,4-dihydro-6-methoxy-2-trichloromethyl-2H-benzo[e]-[1,3]-oxazin-4-one]"
10,0.5,"O=C1NC(C(Cl)(Cl)Cl)Oc2ccccc21 (stereo not shown) [drawing 6; R3=H; R5=H, 3,4-dihydro-2-trichloromethyl-2H-benzo[e]-[1,3]-oxazin-4-one]"
11,0.3,"CCC(=O)Oc1ccc2c(c1)C(=O)N(C(=O)CC)C(C(Cl)(Cl)Cl)O2 (stereo not shown) [drawing 6; R3=C2 H5 CO . O; R5=C2 H5 CO, 3,4-dihydro-3-propionyl-6-propionyloxy-2-trichloromethyl-2H-benzo[e]-[1,3]-oxazin-4-one]"
12,0.3,"CCN(CC)C(=O)c1ccc2c(c1)C(=O)NC(C(Cl)(Cl)Cl)O2 (stereo not shown) [drawing 6; R3=(C2 H5)2 N . CO; R5=H, 3,4-dihydro-N,N-diethyl-4-oxo-2-trichloromethyl-2H-benzo[e]-[1,3]-oxazine-6-carboxamide]"
13,1,CN1C(=O)c2ccccc2N(C)C1C(Cl)(Cl)Cl (stereo not shown) [drawing 5; R3=H; R5=CH3; R6=CH3]
